Data published in patent publication US20090264533A1, “Methods and Compositions for Modulating RHO-Mediated Gene Transcription” (priority 2005, published 2009).
Several values for one entry are separate records, joined by “and”; a condition that tells them apart may be missing. Identical values can stand only once. Entries after “also recorded” stand apart in the source; their conditions may differ. Like-named read-outs stand apart in the source and are kept apart here.

How the values were obtained:
[1] = test system: Gα13/LARG/SRE transcriptional signaling pathway; assay: Gα13QL/LARG-stimulated SRE.L luciferase reporter assay (HTS) in HEK293T cells; format: cell-based, human; conditions: for Inhibition of G13/LARG-stimulated rho transcriptional signaling: FIG. 5
Procedure: FIG. 2 Optimization of HTS Assay. HEK293T cells in 10 cm dishes were co-transfected with 2×-SRE luciferase reporter plasmid (3000 ng) alone or with Gα13QL (5 ng constitutive active mutant) and LARG (150 ng) expression plasmids for 5 hours. Then, the cells were plated into 96-well, and serum-starved for approx. 18 hours (0.5% Fetal Bovine Serum, DMEM medium). Cells were lysed and assayed for luciferase activity via Steady-Glo reagent (Promega) and a luminometer.
In exemplary embodiments of the present invention, HEK293T cells were transiently transfected with a 2×SRE.L-luciferase reporter plasmid that responds selectively to rho signaling (Hill et al., Cell 81:1159-1170, 1995). […] This expression plasmid is specific for rho/MKL/SRF driven gene expression. To stimulate rho, the upstream activators G13 and LARG (FIG. 1) were used. A constitutively active Gα13Q226L plasmid was co-transfected, along with an N-terminal myc-tagged LARG plasmid from Dr. Tohru Kozasa.
To use the reporter assay readout for high throughput chemical inhibition studies, the assay was modified to accommodate chemical inhibitors. Transfection was performed in 10 cm dishes with Lipofectamine 2000. Five hours after transfection, the cells were trypsinized and 30,000 cells per well were transferred into sterile white flat-bottom 96-well plates pre-spotted with 1 μl of chemical compound in DMSO (10 μM final conc). Cells were grown overnight in low serum (0.5% FBS/DMEM medium) exposed to the chemical compounds (in 1% DMSO) for approximately 18 hours before luminescence was read with Steady-Glo luciferase reagent (Promega) in a Victor II plate reader. As a positive inhibitor control, 0.5 μM of Latrunculin B was added to 8 wells per plate. In addition, 8 wells were treated with DMSO only. Latrunculin B is a marine toxin from the Red Sea sponge that is known to sequester monomeric G-actin in the cell and block rho-mediated transcriptional events (Miralles et al., Cell 113:329-342, 2003). The percent inhibition of the Gα13 QL/LARG stimulated SRE-luciferase response was calculated by setting the mean of the negative control (DMSO only) at 0% and the mean of the positive control (Latrunculin B) at 100%. The Z′ score of the assay for high throughput screening was excellent at 0.7 (FIG. 2) indicating reproducibility well-suited to HTS studies.
(§1) An exemplary screen for small molecule inhibitors of the Gα13/LARG/SRE transcriptional signaling pathway utilized a 2000 compound subset of the Maybridge Diverse Chemical Compound Library at 10 μM in the firefly luciferase assay described above. SRE transcription was stimulated by co-transfection of the constitutively active Gα13QL with LARG. […] A cutoff of 75% inhibition was chosen to identify hits for inhibition of the Gα13/LARG/SRE transcriptional signaling pathway. A total of 39 out of 2000 compounds met this criterion. […] To address this issue, a dual luciferase method with a “flash” luciferase substrate plus CMV-Renilla was used as a non-SRF-dependent reporter to eliminate toxic compounds (Table 2). This screen yielded only 4 compounds that were active and specific for the SRE.L reporter signal.

SRE Luciferase = SRE Luciferase reporter with different rho pathway activators (PC-3 cells, FIG. 8, FIG. 13); format: cell-based, human; conditions: for luciferase expression induced by G13, LARG or constitutively active rhoA-GV: FIG. 8
Procedure: (§2) FIG. 8 Inhibition of reporter gene transcription in PC-3 cells. CCG 1423 (10 μM) acts at the transcriptional level inhibiting SRE Luciferase stimulated by both upstream (Gα13, LARG, and RhoA-GV) and downstream signals (MKL1).
FIG. 13. Inhibition by CCG-1423 of three different rho pathway activators (G13, rhoA-GV, and MKL1) with no effect on control reporter plasmid CMV-Renilla.
(§3) The point of action of these inhibitors in the assay was investigated by transfecting the cells with different activators of the pathway (rho, MKL1, and an activated SRF analog SRF-VP16). […] This is consistent with the known site of action of Latruculin. […] Thus, the compounds may be acting by inhibiting MKL- or SRF- or both MKL and SRF-dependent gene transcription. […] Regardless of the mechanism of action, the present invention describes a novel gene transcription inhibitor that selectively prevents MKL/SRF-mediated signals.

CMV-Renilla = CMV-Renilla control reporter expression; format: cell-based
Procedure: (§4) FIG. 6 CCG-1423 inhibits both RhoA and RhoC transcriptional signals. Cells were transfected with the dual reporters SRE-Luciferase and CMV-Renilla then 6 hours later, 6 micromolar CCG-1423 was added and reporter activity measured 16 hours later.
as §2, §1, §3

GAL4-VP16 Luciferase = GAL4-VP16 Luciferase control reporter; format: cell-based
RhoA = RhoA transcriptional signal, SRE-Luciferase / CMV-Renilla dual reporters (FIG. 6); format: cell-based; conditions: 6 micromolar, added 6 hours after transfection, read 16 hours later
Procedure: as §4

RhoC = RhoC transcriptional signal, SRE-Luciferase / CMV-Renilla dual reporters (FIG. 6); format: cell-based; conditions: 6 micromolar, added 6 hours after transfection, read 16 hours later
Procedure: as §4

ras = assay: ras-stimulated transcriptional signals (c-fos and SRE.L reporters, FIG. 14); format: cell-based; conditions: for ras-stimulated transcriptional signals: c-fos reporter, FIG. 14 bottom panel
Description: FIG. 14. […] The rho reporter SRE.L can also be activated by ras (probably via rho activation).

[2] = test system: PC-3 prostate cancer cells; assay: DNA synthesis (BrdU incorporation) in PC-3 cells; format: cell-based, human; conditions: presence of serum
Procedure: FIG. 9 Serum and LPA stimulate DNA synthesis in PC-3 cells. PC-3 cells serum starved for 24 hours were treated for an additional 24 hours in the presence of serum (10% FBS) or the indicated concentrations of LPA. BrdU was added to the medium for the last 2 hours and incorporated BrdU detected in 96-well plates by immunostaining.
FIG. 10 CCG-1423 inhibits LPA- but not FBS-stimulated DNA synthesis in PC-3 prostate cancer cells.

[3] = test system: SKOV-3 ovarian cancer cell line; assay: BrdU incorporation in SKOV-3 cells; format: cell-based
SKOV-3 cells [4] = assay: Matrigel matrix invasion by SKOV-3 cells; format: cell-based
Procedure: FIG. 11 CCG-1423 inhibits the spontaneous matrix invasion by PC-3 cells. Top) One prostate and three ovarian cancer lines (50,000 cells per well) were lifted with trypsin, suspended in serum free medium and plated on 24-well Matrigel inserts with (solid) or without (hatched) 30 μM LPA in the lower chamber. After 24 hours, cells above the filter were wiped off and the remaining cells were fixed, stained, and counted to determine the number of cells that had invaded the Matrigel. Bottom) Matrigel invasion by PC-3 cells (-LPA) and SKOV-3 cells (+30 μM LPA) was tested in the presence of the indicated concentrations of CCG-1423.

SKOV-3 cells [5] = assay: Cell growth (WST1 absorbance) of SKOV-3 cells; format: cell-based
Procedure: PC-3 or SKOV-3 cells (2000 per well) were plated in medium containing 2% FBS. After growth overnight, the indicated concentrations of CCG-1423 were added from a DMSO stock (<1% final) and cells allowed to continue growing for an additional 7 days. Cell growth was measured by WST1 absorbance (similar to MTT). The IC50 values for PC-3 and SKOV-3 cells were 600 nM and 3 μM. The dotted line represents a no-cell blank.

PC-3 cells [6] = assay: WST1 metabolism viability control for BrdU studies; format: cell-based, human; conditions: 10 uM, 18 hours of drug treatment, absence of serum
Procedure: Even more exciting are the effects of the novel inhibitors of the present invention on PC-3 cell functions (LPA-stimulated DNA synthesis, proliferation, and invasion). More particularly, it is shown that for the highly aggressive human PC-3 prostate cancer cell line, the novel inhibitors described herein inhibit proliferation, LPA-stimulated DNA synthesis, and matrix invasion. All of these effects occur at remarkably similar concentrations (IC50 900, 830, and 600 nM, respectively). This is also very similar to the concentration needed to inhibit rho-stimulated SRE.L luciferase expression in HEK293T cells (980 nM). […] Only at high concentrations (10 uM) is there any effect on proliferation or matrix invasion and there is no inhibition of BrdU incorporation as well.

[7] = test system: RGS-rhoGEFs (LARG, PDZrhoGEF, p115rhoGEF); assay: rhoGEF-stimulated SRE.L dual luciferase assay in HEK293 cells; format: cell-based, human; conditions: 0.5 μM
Procedure: Luciferase Assays—Twenty-four hours post-transfection with firefly and Renilla vectors, HEK293 cells were serum-starved (0.5% serum), and then at 48 h, luciferase activity was determined using the dual luciferase assay kit (Promega, Madison, Wis.) according to the manufacturer's instructions. The ratio of firefly to Renilla luciferase counts was calculated. Data are expressed as the percent of the control value (samples without siRNA).
In these studies, each rhoGEF plasmid DNA (p115, PDZ, or LARG) was introduced into HEK293T cells using LipofectAMINE 2000 in a 96-well plate along with the dual luciferase reporters (SRE.L and pRL-TK) and a panel of different rhoGEF siRNAs (+) or inverted mutant siRNAs (−). […] Firefly/Renilla ratios for the siRNAs (+ and −) were expressed as a percent of that for buffer controls with only the rhoGEF and reporter cDNAs transfected.

ROCK = assay: Luciferase expression stimulated by transfecting in the kinase ROCK; format: cell-based
PC-3 cells [8] = assay: Cell rounding assay in PC-3 cells; format: cell-based, human; conditions: 30 min
Procedure: Cell Rounding Assay—The day before transfection, PC-3 cells were grown on laminin-coated coverslips in 12-well plates until […]. Cells were then transfected with 0.2 μg of EGFP cDNA. To disrupt rho signaling GFP was co-transfected with either a C3 exotoxin expression vector (0.5 μg) or with 2.0 μg of the indicated siRNA or inverted control along with 8 μl/well of LipofectAMINE 2000. At 45 h post-transfection, cultures were changed to serum-free medium and 6 h later treated with either buffer, thrombin (100 nM), or LPA (50 μM) for 30 min. Cells were then fixed with 4% paraformaldehyde for 10 min and GFP images obtained using an Olympus fluorescence microscope with a 20× objective. Fluorescent cells were counted (100-300 per coverslip) and the percentage of rounded cells determined. Cell rounding at 30 min was dose-dependent (EC50 80 nM for thrombin and 50 μM for LPA) and reversible upon removal of thrombin for 45 min.
rho stimulates several types of cytoskeletal rearrangements. […] In these studies, at 48 h after transfection, cells were stimulated with thrombin (100 nM) or LPA (50 μM) for 30 min, fixed, and fluorescence images taken. […] At 48 h post-transfection cells were stimulated with thrombin or LPA and analyzed as described above. One-hundred green cells from each coverslip were counted, and the percentage of round cells was determined. […]

Molecule: CC(ONC(=O)c1cc(C(F)(F)F)cc(C(F)(F)F)c1)C(=O)Nc1ccc(Cl)cc1 (stereo not drawn) [CCG-1423]
- Inhibition of G13/LARG-stimulated rho transcriptional signaling [1]: Inhibition
- IC50 ([1]; HEK293T cells, dose response curves, read-out: IC50, inhibition of G13/LARG (rho-) stimulated SRE.L luciferase expression): ~1 µM and 0.98 µM and 0.8 µM
- IC50 ([1]; HTS reporter assay, read-out: IC50, inhibition of MKL/SRF-dependent gene transcription): ~0.8 µM
- luciferase expression activated by SRF-VP16 (SRE Luciferase): inhibited; also recorded: able to inhibit
- luciferase expression induced by MKL (SRE Luciferase): inhibited
- SRE Luciferase stimulated by upstream (Gα13, LARG, and RhoA-GV) and downstream signals (MKL1) (SRE Luciferase; 10 μM, PC-3 cells): inhibiting
- SRF-VP16 Luciferase (SRE Luciferase; 10 μM, PC-3 cells): no effect
- luciferase expression induced by G13, LARG or constitutively active rhoA-GV (SRE Luciferase): inhibited
- three different rho pathway activators (G13, rhoA-GV, and MKL1) (SRE Luciferase; FIG. 13): Inhibition
- CMV-Renilla expression (CMV-Renilla; 3 μM): did not inhibit
- CMV-driven Renilla expression (CMV-Renilla; 10 μM, PC-3 cells): does not inhibit
- control reporter CMV-Renilla expression (CMV-Renilla; concentration not given): not inhibited; also recorded: no effect
- Gal-4-VP16 Luciferase signal (GAL4-VP16 Luciferase; 3 μM): only a slight inhibitory effect
- GAL4-VP16 Luciferase (GAL4-VP16 Luciferase; 10 μM, PC-3 cells): no effect
- RhoA transcriptional signal (SRE-Luciferase) (RhoA): blocking; also recorded: inhibits
- RhoC transcriptional signal (rhoC-stimulated luciferase expression) (RhoC): inhibits
- ras-stimulated transcriptional signals (ras): inhibition
- FBS (serum)-stimulated DNA synthesis [2]: not inhibited until high concentrations are reached
- inhibition of BrdU incorporation [3]: no inhibition
- concentration at which there is any effect on matrix invasion (SKOV-3 cells [4]): 10 µM
- concentration at which there is any effect on proliferation (SKOV-3 cells [5]): 10 µM
- IC50 (SKOV-3 cells [5]; 2% FBS, 7 days, WST1): 3 µM
- viable cells (WST1 metabolism) (PC-3 cells [6]): no decrease in viable cells

Molecule: C/C1=C/C(=O)O[C@@H]2C[C@@H](CC[C@H](C)/C=C\CC1)O[C@@](O)([C@@H]1CSC(=O)N1)C2 [Latrunculin B, reference compound]
- Inhibition of G13/LARG-stimulated rho transcriptional signaling [1]: Inhibition
- luciferase expression activated by SRF-VP16 (SRE Luciferase): did not inhibit
- luciferase expression induced by G13, LARG or constitutively active rhoA-GV (SRE Luciferase): fully inhibits
- SRE.L rho reporter signal activated by ras (ras; FIG. 14): blocked
- ras-stimulated transcriptional signals (ras): not
- rhoGEF-stimulated luciferase signal [7]: completely eliminated

Molecule: C[C@@H](N)[C@H]1CC[C@H](C(=O)Nc2ccncc2)CC1 [Y-27632, reference compound]
- Inhibition of G13/LARG-stimulated rho transcriptional signaling [1]: only partially blocked; also recorded: Inhibition
- luciferase expression stimulated by transfecting in the kinase ROCK (ROCK): fully inhibited

Molecule: lysophosphatidic acid [LPA, reference compound]
- EC50 (PC-3 cells [8]): 50 µM

Molecule: thrombin
- EC50 (PC-3 cells [8]): 0.08 µM
